Results published in patent US20090258947A1 (priority 2006, published 2009).
Read-outs that look alike come from different tables or passages of the source. Marks after values point to notes of the source that are not given here.

Tests used:
[1] = test system: carrageenan induced paw edema in Wistar rats; settings: for Change in volume (ml) at hour (h): mean ± S.E.M., n = 6
Method: Male Wistar rats (180-250 g) were selected for the study comprising 6 animals in each group for the duration of study of 1 day. The vehicle used was (0.5% CMC in 0.1% Tween®80) and the route of administration was peroral (p.o.). […] One hour later 0.1 ml of 1% carrageenan was administered s.c. to the right hind paw of the rat. The degree of inflammation was measured by using digital plethosmometer (Cat. No. 7140, Ugo Basile, Italy) at 0 (initial), 0.5, 1, 2, 3 and 5 hours (h) post carrageenan injection and the values were recorded. For each hour, at least 2-3 values of the dipped paw were obtained and later averaged. The increase in the paw volume (ml) was calculated by subtracting the values obtained at the n^th from the 0 hour and percentage of activity was also calculated. The changes in paw edema (ml) values were expressed as mean±S.E.M. The treatment values were compared with the control values for a particular hour using One-Way Analysis of Variance followed by Dunnett's multiple comparison test. Values of p<0.05 were considered as statistically significant.

[2] = test system: 1% acetic acid induced writhing in mice; settings: for No. of writhes: 20-minute session, mean ± S.E.M., N = 6
Method: (§1) Male Swiss mice (18-22 g) were selected for the study comprising 6 animals in each group. The dose volume was 0.1 ml/10 g body weight of mice and the route of administration was per oral (p.o.). Two tests were performed for the purpose. […] One hour later, a 1% acetic acid solution (10 ml/kg, i.p.) was used to produce writhing in mice. The numbers of writhes {constriction of abdomen, turning of trunk (twist), and extension of hind limbs} due to acetic acid were expressed as painful response. The numbers of writhes per animal were counted during a 20-minute session, beginning 3 minutes after the acetic acid injection. In second test i.e. Tail flick test, the mouse tail was placed on the radiant heat produced by the tail flick apparatus and the individual animal tail flick response was noted (a trail of three was carried out). Animals having a latency to tail withdrawal from the radiant heat source (3-5 s) were selected for the study. […] 1, 2, 4, 5 hours later, the tail flick latency were noted and the change in latency and % maximum protective effect (% MPE) was calculated. A cut off time of 10 seconds was used to prevent any injury to the tail. The changes in tail flick latency and the number of writhes are expressed as mean±S.E.M. The treatment values were compared with the control values for a particular hour using One-Way Analysis of Variance followed by Dunnett's or Bonferroni's multiple comparison test. Values of p<0.05 were considered as statistically significant.

[3] = test system: tail flick latency to radiant heat in mice; settings: for % MPE at hour (h) / Tail flick latency(s) at hour (h): mean ± S.E.M., N = 6
Method: as §1

[4] = cited from earlier work

CS(=O)(=O)Nc1ccc([N+](=O)[O-])cc1Oc1ccccc1 [Nimesulide, 4-nitro-2-phenoxymethane-sulfonanilide]
Percentage of anti-inflammatory activity at hour (h) ([1]; 1 mg/kg p.o., 0.5 h): 16% | Change in volume (ml) at hour (h) ([1]; 1 mg/kg p.o., 0.5 h post carrageenan): 0.148 ± 0.033 mL | Percentage of anti-inflammatory activity at hour (h) ([1]; 1 mg/kg p.o., 1 h): −8% | Change in volume (ml) at hour (h) ([1]; 1 mg/kg p.o., 1 h post carrageenan): 0.186 ± 0.042 mL | Percentage of anti-inflammatory activity at hour (h) ([1]; 1 mg/kg p.o., 2 h): −7% | Change in volume (ml) at hour (h) ([1]; 1 mg/kg p.o., 2 h post carrageenan): 0.312 ± 0.081 mL | Percentage of anti-inflammatory activity at hour (h) ([1]; 1 mg/kg p.o., 3 h): 20% | Change in volume (ml) at hour (h) ([1]; 1 mg/kg p.o., 3 h post carrageenan): 0.398 ± 0.092 mL | Percentage of anti-inflammatory activity at hour (h) ([1]; 1 mg/kg p.o., 5 h): 14% | Change in volume (ml) at hour (h) ([1]; 1 mg/kg p.o., 5 h post carrageenan): 0.549 ± 0.114 mL | Percentage of anti-inflammatory activity at hour (h) ([1]; 3 mg/kg p.o., 0.5 h): 22% | Change in volume (ml) at hour (h) ([1]; 3 mg/kg p.o., 0.5 h post carrageenan): 0.137 ± 0.038 mL | Percentage of anti-inflammatory activity at hour (h) ([1]; 3 mg/kg p.o., 1 h): 27% | Change in volume (ml) at hour (h) ([1]; 3 mg/kg p.o., 1 h post carrageenan): 0.126 ± 0.028 mL | Percentage of anti-inflammatory activity at hour (h) ([1]; 3 mg/kg p.o., 2 h): 33% | Change in volume (ml) at hour (h) ([1]; 3 mg/kg p.o., 2 h post carrageenan): 0.196 ± 0.056 mL | Percentage of anti-inflammatory activity at hour (h) ([1]; 3 mg/kg p.o., 3 h): 66* % | Change in volume (ml) at hour (h) ([1]; 3 mg/kg p.o., 3 h post carrageenan): 0.168 ± 0.11 mL | Percentage of anti-inflammatory activity at hour (h) ([1]; 3 mg/kg p.o., 5 h): 44% | Change in volume (ml) at hour (h) ([1]; 3 mg/kg p.o., 5 h post carrageenan): 0.354 ± 0.104 mL | Percentage of anti-inflammatory activity at hour (h) ([1]; 10 mg/kg p.o., 0.5 h): 33% | Change in volume (ml) at hour (h) ([1]; 10 mg/kg p.o., 0.5 h post carrageenan): 0.118 ± 0.027 mL | Percentage of anti-inflammatory activity at hour (h) ([1]; 10 mg/kg p.o., 1 h): 17% | Change in volume (ml) at hour (h) ([1]; 10 mg/kg p.o., 1 h post carrageenan): 0.143 ± 0.016 mL | Percentage of anti-inflammatory activity at hour (h) ([1]; 10 mg/kg p.o., 2 h): 62% | Change in volume (ml) at hour (h) ([1]; 10 mg/kg p.o., 2 h post carrageenan): 0.110 ± 0.018 mL | Percentage of anti-inflammatory activity at hour (h) ([1]; 10 mg/kg p.o., 3 h): 59* % | Change in volume (ml) at hour (h) ([1]; 10 mg/kg p.o., 3 h post carrageenan): 0.203 ± 0.032 mL | Percentage of anti-inflammatory activity at hour (h) ([1]; 10 mg/kg p.o., 5 h): 58** % | Change in volume (ml) at hour (h) ([1]; 10 mg/kg p.o., 5 h post carrageenan): 0.264 ± 0.035 mL | anti-inflammatory activity over time ([1]; 10 mg/kg, all time intervals): almost consistent anti-inflammatory activity at all time intervals | Percentage of anti-inflammatory activity at hour (h) ([1]; 30 mg/kg p.o., 0.5 h): 28% | Change in volume (ml) at hour (h) ([1]; 30 mg/kg p.o., 0.5 h post carrageenan): 0.126 ± 0.027 mL | Percentage of anti-inflammatory activity at hour (h) ([1]; 30 mg/kg p.o., 1 h): −12% | Change in volume (ml) at hour (h) ([1]; 30 mg/kg p.o., 1 h post carrageenan): 0.193 ± 0.024 mL | Percentage of anti-inflammatory activity at hour (h) ([1]; 30 mg/kg p.o., 2 h): 27% | Change in volume (ml) at hour (h) ([1]; 30 mg/kg p.o., 2 h post carrageenan): 0.214 ± 0.028 mL | Percentage of anti-inflammatory activity at hour (h) ([1]; 30 mg/kg p.o., 3 h): 38% | Change in volume (ml) at hour (h) ([1]; 30 mg/kg p.o., 3 h post carrageenan): 0.307 ± 0.020 mL | Percentage of anti-inflammatory activity at hour (h) ([1]; 30 mg/kg p.o., 5 h): 30% | Change in volume (ml) at hour (h) ([1]; 30 mg/kg p.o., 5 h post carrageenan): 0.443 ± 0.035 mL | degree of anti-inflammatory activity ([1]; 30 mg/kg p.o., from 2-5 hour): around 30% | reduction in paw volume (dose dependence) ([1]; 1, 3 and 10 mg/kg, p.o., from 2 to 5 hour): dose dependant reduction in paw volume | reduction in paw volume compared to control (significance) ([1]; 3 and 10 mg/kg at 3 hours and 10 mg/kg at 5 hours, p<0.05): statistically significant reduction in paw volume | % protection ([2]; 0.03 mg/kg p.o.): 28% | No. of writhes ([2]; 0.03 mg/kg p.o.): 23.17 ± 3.38 | % protection ([2]; 0.1 mg/kg p.o.): 39% | No. of writhes ([2]; 0.1 mg/kg p.o.): 19.67 ± 2.73 | No. of writhes ([2]; 0.3 mg/kg p.o.): 15.50 ± 1.88 | % protection ([2]; 1.0 mg/kg p.o.): 75% | No. of writhes ([2]; 1.0 mg/kg p.o.): 8.00 ± 1.15 | reduction in number of writhes (dose dependence) ([2]; doses 0.03, 0.1, 0.3 and 1 ml/kg, 1% acetic acid): dose dependant reduction in number of writhes | reduction in number of writhing (significance) ([2]; doses 0.1, 0.3 and 1 mg/kg): statistically significant reduction in number of writhing | % MPE at hour (h) ([3]; 0.1 mg/kg p.o., 1 h): 137.0 ± 37.1 % | Tail flick latency(s) at hour (h) ([3]; 0.1 mg/kg p.o., 1 h): 3.00 ± 0.58 s | % MPE at hour (h) ([3]; 0.1 mg/kg p.o., 2 h): 251.0 ± 59.9 % | Tail flick latency(s) at hour (h) ([3]; 0.1 mg/kg p.o., 2 h): 5.50 ± 0.18 s | % MPE at hour (h) ([3]; 0.1 mg/kg p.o., 3 h): 279.0 ± 49.4 % | Tail flick latency(s) at hour (h) ([3]; 0.1 mg/kg p.o., 3 h): 6.17 ± 0.33 s | % MPE at hour (h) ([3]; 0.1 mg/kg p.o., 5 h): 28.0 ± 6.1 % | Tail flick latency(s) at hour (h) ([3]; 0.1 mg/kg p.o., 5 h): 1.42 ± 0.35 s | % MPE at hour (h) ([3]; 0.3 mg/kg p.o., 1 h): 114.0 ± 16.8 % | Tail flick latency(s) at hour (h) ([3]; 0.3 mg/kg p.o., 1 h): 3.17 ± 0.51 s | % MPE at hour (h) ([3]; 0.3 mg/kg p.o., 2 h): 193.0 ± 9.5 % | Tail flick latency(s) at hour (h) ([3]; 0.3 mg/kg p.o., 2 h): 5.33 ± 0.38 s | % MPE at hour (h) ([3]; 0.3 mg/kg p.o., 3 h): 209.0 ± 4.3 % | Tail flick latency(s) at hour (h) ([3]; 0.3 mg/kg p.o., 3 h): 5.75 ± 0.21 s | % MPE at hour (h) ([3]; 0.3 mg/kg p.o., 5 h): 54.0 ± 6.6 % | Tail flick latency(s) at hour (h) ([3]; 0.3 mg/kg p.o., 5 h): 3.08 ± 0.27 s | % MPE at hour (h) ([3]; 1.0 mg/kg p.o., 1 h): 112.0 ± 22.5 % | Tail flick latency(s) at hour (h) ([3]; 1.0 mg/kg p.o., 1 h): 3.17 ± 0.67 s | % MPE at hour (h) ([3]; 1.0 mg/kg p.o., 2 h): 187.0 ± 11.9 % | Tail flick latency(s) at hour (h) ([3]; 1.0 mg/kg p.o., 2 h): 5.25 ± 0.25 s | % MPE at hour (h) ([3]; 1.0 mg/kg p.o., 3 h): 187.0 ± 12.0 % | Tail flick latency(s) at hour (h) ([3]; 1.0 mg/kg p.o., 3 h): 5.25 ± 0.28 s | % MPE at hour (h) ([3]; 1.0 mg/kg p.o., 5 h): 38.0 ± 6.1 % | Tail flick latency(s) at hour (h) ([3]; 1.0 mg/kg p.o., 5 h): 2.17 ± 0.28 s | % MPE at hour (h) ([3]; 3.0 mg/kg p.o., 1 h): 205.0 ± 32.9 % | Tail flick latency(s) at hour (h) ([3]; 3.0 mg/kg p.o., 1 h): 5.17 ± 0.73 s | % MPE at hour (h) ([3]; 3.0 mg/kg p.o., 2 h): 250.0 ± 21.9 % | Tail flick latency(s) at hour (h) ([3]; 3.0 mg/kg p.o., 2 h): 6.33 ± 0.33 s | % MPE at hour (h) ([3]; 3.0 mg/kg p.o., 3 h): 248.0 ± 20.4 % | Tail flick latency(s) at hour (h) ([3]; 3.0 mg/kg p.o., 3 h): 6.25 ± 0.21 s | % MPE at hour (h) ([3]; 3.0 mg/kg p.o., 5 h): 70.0 ± 9.5 % | Tail flick latency(s) at hour (h) ([3]; 3.0 mg/kg p.o., 5 h): 5.33 ± 0.85 s | tail flick latency to radiant heat (dose dependence) ([3]; 0.1, 0.3, 1 and 3 mg/kg, 1, 2, 3 and 5 hours): non dose dependant reduction in tail flick latency | percentage of maximum protection (significance) ([3]; all time intervals and all dose levels): statistically significant at all time intervals and at all dose levels | Time to reach peak concentration (tmax), mean ([4]; after 100 mg): 2.50 h | Time to reach peak concentration (tmax), mean ([4]; after 200 mg dose): 3.17 h
